Laboratory results published in publication PMC6006164, “Natural cyclopeptide RA-V inhibits the NF-κB signaling pathway by targeting TAK1” (Cell Death & Disease, 2018).

How the values were obtained:
[1] = molecular target: T1, TAK1–TAB2 interaction (Homo sapiens, UniProt O43318); assay: Co-immunoprecipitation of TAK1 and TAB2; format: cell-based; conditions: HEK293T, Flag-TAK1 and HA-TAB2; RA-V 6 h
T1 construct: expressed in transfected cells; host or cells: HEK293T
T1 sequence (O43318 1-579 isoform O43318-2): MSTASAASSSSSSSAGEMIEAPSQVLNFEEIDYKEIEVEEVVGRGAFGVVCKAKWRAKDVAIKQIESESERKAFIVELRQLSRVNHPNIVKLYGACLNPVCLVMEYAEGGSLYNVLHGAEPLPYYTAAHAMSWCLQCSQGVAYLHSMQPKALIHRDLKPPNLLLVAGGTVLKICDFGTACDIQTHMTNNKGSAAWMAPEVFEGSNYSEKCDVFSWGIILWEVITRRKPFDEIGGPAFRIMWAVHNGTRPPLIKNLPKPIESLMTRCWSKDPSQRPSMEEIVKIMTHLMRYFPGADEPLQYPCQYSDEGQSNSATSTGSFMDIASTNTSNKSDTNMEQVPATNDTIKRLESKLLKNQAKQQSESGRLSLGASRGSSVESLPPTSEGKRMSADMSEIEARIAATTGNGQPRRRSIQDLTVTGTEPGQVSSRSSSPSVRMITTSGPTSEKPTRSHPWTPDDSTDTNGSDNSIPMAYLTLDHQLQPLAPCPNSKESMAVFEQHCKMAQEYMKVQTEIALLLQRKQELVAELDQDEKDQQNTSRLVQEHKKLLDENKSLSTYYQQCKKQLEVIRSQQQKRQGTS
Method: (§1) Fig. 4 RA-V blocks the interaction between TAK1 and TAB2. a RA-V blocked the exogenous TAK1–TAB2 interaction. HEK293T cells were transfected with Flag-TAK1 and HA-TAB2 for 24 h and then incubated with various concentrations of RA-V for 6 h. […] HEK293T cells were transfected with Flag-TAK1 and HA-TRAF6 or HA-TAB1 for 24 h and then incubated with RA-V (800 nM) for 6 h. The cell lysates were immunoprecipitated with HA antibody, and immunoblots were performed with the indicated antibodies. d RA-V blocked the endogenous TAK1–TAB2 interaction. HEK293T (left) or RAW264.7 (right) cells were incubated with 800 nM RA-V for 6 h and stimulated with 10 ng/mL TNF-α for 2 h or 1 μg/mL LPS for 3 h, respectively. The cell lysates were immunoprecipitated with TAK1 antibody or control IgG and then immunoblotted with the indicated antibodies. Each experiment was repeated at least three times
(§2) The cell lysates were prepared using radioimmunoprecipitation (RIPA) buffer containing 50 mM Tris-HCl pH 7.4, 150 mM NaCl, 1 mM ethylenediaminetetraacetic acid, 1% Triton X-100, 0.5% deoxycholate, and 0.1% sodium dodecyl sulfate, to which protease inhibitors (Roche) were added. The lysates were incubated with the indicated antibodies before adding 20 μL of Protein A/G agarose for 2 h. After four washes with the same buffer, the immunoprecipitates were boiled in 2 × SDS loading buffer.

[2] = system: TAK1–TAB2 interaction; assay: Co-immunoprecipitation of TAK1 and TAB2; format: cell-based; conditions: HEK293T or RAW264.7; 800 nM RA-V 6 h
Method: as §1, §2

[3] = system: NF-κB activation; assay: Bioluminescence imaging of NF-κB-luciferase transgenic mice in the endotoxin shock model; format: in vivo; conditions: RA-V micelles 0.25 mg/kg i.v. 52, 28, 4 h before LPS 10 mg/kg i.p.; n = 4; particularly 2 h after LPS
Method: Fig. 2 RA-V prevents endotoxic shock and inhibits NF-κB activation in vivo. a–c RA-V prevents endotoxic shock in vivo. Mice (n = 6 per group) were intravenously injected with RA-V micelles (0.25 mg/kg body weight) or control micelles 52, 28, and 4 h before an intraperitoneal injection of LPS (10 mg/kg). One hour later, the relative levels of IL-6 and TNF-α mRNAs in the liver were assessed by quantitative RT-PCR (a), the serum IL-6 and TNF-α levels were quantified by ELISA (b), and the expression of p65 and IκBα phosphorylation in the liver were measured by immunoblot analysis c. d RA-V improved animal survival. Mice (n = 20 per group) were intravenously injected with RA-V micelles (0.25 mg/kg body weight) or control micelles 52, 28, and 4 h before intraperitoneal injection of LPS (20 mg/kg). Animal survival was recorded in 2–3 hours intervals. e RA-V inhibits NF-κB activation in vivo. […] The bioluminescent signals from all of the mice were detected and quantified. […]
The bioluminescence imaging of the NF-κB-luciferase transgenic mice was performed using a Xenogen IVIS Spectrum in vivo imaging system (Caliper Life Sciences). […] After 15 min, the in vivo bioluminescence was measured at the indicated times. The bioluminescent signals from all of the mice were detected and quantified.

[4] = system: NF-κB-regulated reporter; assay: NF-κB reporter induced by transfected TRAF2, MyD88, IKKβ or p65 plasmid; format: cell-based; conditions: HEK293T; RA-V 48 h
Method: To determine where RA-V acts in this pathway, TRAF2, MyD88, IKKβ, or p65 plasmid was transiently transfected into HEK293T cells together with the 5 × κB-lucieferase and pTK-Renilla reporters. […] Western blots were performed to investigate the effect of RA-V on NF-κB-associated proteins in HEK293T cells transfected with the TRAF2, MyD88, or IKKβ plasmid. […] Moreover, we used a computational method to predict where RA-V is likely to act in this pathway.
Fig. 3 RA-V represses NF-κB activation upstream of the IKK protein complex. a RA-V inhibited the TRAF2- and MyD88-induced expression of the NF-κB reporter in a dose-dependent manner. The indicated plasmids were transfected into HEK293T cells together with the 5 × κB-luciferase and pTK-Renilla reporters. Twenty-four hours after transfection, the cells were incubated with various concentrations of RA-V for 48 h before luciferase assays were performed. b RA-V inhibited TRAF2- and MyD88-induced p65 phosphorylation and IκBα phosphorylation in a dose-dependent manner. HEK293T cells were transfected with TRAF2, MyD88, IKKβ, or p65 for 24 h and then treated with various concentrations of RA-V for 48 h. The cell lysates were immunoblotted with the indicated antibodies. c RA-V likely exerts its inhibitory activity on the NF-κB pathway by acting on the TRAF6-TAK1–TAB1/2 complex. […]

RA-V
interaction between exogenously expressed TAK1 and TAB2 [1]: dose-dependently blocked | endogenous TNF-α- or LPS-induced TAK1–TAB2 interaction [2]: inhibited the interaction | NF-κB activation, in vivo bioluminescence [3]: inhibited NF-κB activation | NF-κB-regulated reporter expression in cells transfected with IKKβ or p65 [4]: no effect | NF-κB-regulated reporter expression in cells transfected with TRAF2 or MyD88 [4]: dose-dependently suppressed
